Like-named read-outs stand apart in the source and are kept apart here.
Legend:
BE(2)-M17 cells = assay: high-content analysis of neurite outgrowth in MPP^+-treated BE(2)-M17 cells; assay type: cell-based, human; settings: for neurite length: MPP^+ alone 24.2 μm
Experimental: For automated neuronal morphology analysis, BE(2)-M17 cells were seeded in 24-well plate (5 × 10^4/well) and treated with retinoic acid, LM compounds (10 μM), and MPP^+ as described. On day 7, after being fixed and permeated, cells were stained with TUBB3 (neuronal class III β-tubulin) antibody (#802001; 1:1,000; BioLegend, San Diago, CA, USA) at 4°C overnight, followed by Alexa Fluor 555-donkey anti-rabbit (#A-31572) antibody (1:1,000; Thermo Fisher Scientific) at room temperature for 2 h. TUBB3 is a β-tubulin isoform constitutively expressed in neurons and important for maintaining further neurite elongation (Ferreira and Caceres, [1992]). After nuclei staining with DAPI, neuronal images were captured at 531 nm excitation and 593 nm emission wavelengths (ImageXpress Micro Confocal; Molecular Devices). Microscopic images were segmented with multi-colored mask to assign each outgrowth to a cell body for quantification of neurite outgrowth. Neurite total length (μm) and numbers of primary neurites originated from neuronal cell body (process) and secondary neurites extended from primary neurites (branch) were analyzed (Neurite Outgrowth Application Module; Molecular Devices). For each sample, around 3,000 cells were analyzed in each of three independent experiments.

GCLC = assay: Western blot GCLC in MPP^+-treated BE(2)-M17 cells; assay type: cell-based, human; settings: BE(2)-M17, compound 10 μM + 0.62 mM MPP^+; MPP^+ alone 86%; untreated = 100%
Experimental: HMC3 (2 × 10^5/6-well) or BE(2)-M17 (4 × 10^5/6-well) cells were lysed in buffer (composition: 50 mM Tris-HCl pH8.0, 2 mM EDTA pH8.0, 150 mM NaCl, 0.5% sodium deoxycholate, 0.1% SDS, 50 mM NaF, 1% NP40) containing the protease and/or phosphatase inhibitor cocktail (Sigma-Aldrich). After sonication, the lysates were centrifuged (12,000 × g for 10 min at 4°C) and protein concentrations determined (Bradford protein assay; Bio-Rad, Hercules, CA, USA). Aliquots of protein (20 μg) were separated by electrophoresis using 10%−12% SDS–polyacrylamide gel followed by transfer to a polyvinylidene fluoride (PVDF) membrane. After being blocked, the PVDF membrane was stained with NLRP3 (#15101s), caspase-1 (CASP1; #3866s), iNOS (#20609), IL-1β (#12242), CREB (#9192), BCL2-associated X (BAX; #2772; 1:1,000; Cell Signaling), IL-6 (#ab6672), TNF-α (#ab9739), GCLC (#ab41463), BDNF (#ab108319; 1:1,000; Abcam, Cambridge, UK), NLRP1 (#NBP-1-54899; 1:500; Novus Biologicals, Centennial, CO, USA), NRF2 (#ABE413), NQO1 (#N5288), p-CREB (Ser133; #06-519; 1:1,000; Sigma-Aldrich), PGC-1α (#GTX37356; 1:1,000; GeneTex, Irvine, CA, USA), B-cell lymphoma 2 (BCL2; #IR94-392; 1:1,000; iReal Biotechnology, New Taipei City, Taiwan), or glyceraldehyde-3-phosphate dehydrogenase (GAPDH; #30000002; 1:1,000; MDBio, Taipei, Taiwan) primary antibody at room temperature 2 h or 4°C overnight. The immune complexes were detected using horseradish peroxidase (HRP)-conjugated goat anti-mouse or goat anti-rabbit IgG antibody (1:5,000; GeneTex) and chemiluminescent HRP substrate (Millipore, Burlington, MA, USA). Immunoreactive bands were captured (ImageQuant™ LAS 4000, GE Healthcare, Chicago, IL, USA) and quantified (Multi Gauge V3.0 software, Fujifilm, Tokyo, Japan).

caspase-3 = caspase-3 activity assay in MPP^+-treated BE(2)-M17 cells; assay type: cell-based, human
Experimental: BE(2)-M17 cells were plated onto six-well (4 × 10^5/well) and treated with retinoic acid, LM compounds (10 μM), and MPP^+ as described. Cells were collected on day 7 and lysed by six freeze/thaw cycles. Types of substrates applied were: Ac-Tyr-Val-Ala-Asp-7-amino-4-trifluoromethyl coumarin (YVAD-AFC) for caspase-1, Ac-Val-Glu-Ile-Asp-7-amino-4-trifluoromethyl coumarin (VEID-AFC) for caspase-6 (BioVision, Milpitas, CA, USA), and Ac-Asp-Glu-Val-Asp-7-amido-4-methylcoumarin (DEVD-AMC) for caspase-3 (Sigma-Aldrich). The reaction mixtures were incubated for 1.5 h at 37°C per the manufacturer's instructions. The fluorescence intensity at 400 nm excitation and 505 nm emission (caspase-1 and caspase-6) or 360 nm excitation and 460 nm emission (caspase-3) wavelengths were recorded (BioTek FLx800).

[1] = test system: MPP^+-treated BE(2)-M17 cells; assay: cell viability (MTT) in MPP^+-treated BE(2)-M17 cells; assay type: cell-based; settings: Homo sapiens, read-out: cell viability
Experimental: To examine neuroprotective potential of LM compounds, BE(2)-M17 cells were plated onto 96-well plate [1 × 10^4/well for cell viability and lactate dehydrogenase (LDH) release assays] or 24-well plate (5 × 10^4/well for ROS assay) with retinoic acid addition (5 μM) on day 1 to initiate neuronal differentiation. On day 5, after removing retinoic acid, cells were pre-treated with LM compounds (1–10 μM) for 8 h, followed by addition of 0.62 mM MPP^+ for 40 h. The cell viability was evaluated by MTT assay as described, and the release of LDH in cell culture medium was measured by using LDH cytotoxicity assay kit (Cayman Chemical). The absorbance was read at 490 nm with Multiskan GO microplate reader (Thermo Fisher Scientific).

[2] = BE(2)-M17, compound 10 μM + 0.62 mM MPP^+, MPP^+ alone 2.6
[3] = BE(2)-M17, compound 10 μM + 0.62 mM MPP^+
[4] = BE(2)-M17, compound 10 μM + 0.62 mM MPP^+, MPP^+-untreated = 100%

SMILES: CN(C)c1ccc(/C=C/C(=O)c2c(O)c3ccccc3oc2=O)cc1 [LM-021, (E)-3-(3-(4-(dimethylamino)phenyl)acryloyl)-4-hydroxy-2H-chromen-2-one]
- number of process (BE(2)-M17 cells; [2]): 2.8–3.0
- neurite length (BE(2)-M17 cells; [3]): 26.2–27.2 μm
- GCLC level (GCLC): 99–106%
- caspase-3 activity (caspase-3; [4]): 101%
- viability at 10 µM [1]: 95 to 97%

SMILES: O=C(/C=C/c1ccccc1O)c1c(O)c2ccccc2oc1=O [LM-036]
- number of process (BE(2)-M17 cells; [2]): 2.8–3.0
- neurite length (BE(2)-M17 cells; [3]): 26.2–27.2 μm
- GCLC level (GCLC): 99–106%
- caspase-3 activity (caspase-3; [4]): 101%
- viability at 10 µM [1]: 95 to 97%

SMILES: C[n+]1ccc(-c2ccccc2)cc1 [MPP^+, 1-methyl-4-phenyl pyridinium, reference compound]
- number of branch (BE(2)-M17 cells; BE(2)-M17, 0.62 mM MPP^+ alone, untreated 1.2, not significant): 1.1
- number of process (BE(2)-M17 cells; BE(2)-M17, 0.62 mM MPP^+ alone, untreated 2.9): 2.6
- total length of neurite (BE(2)-M17 cells; BE(2)-M17, 0.62 mM MPP^+ alone, untreated 26.0 μm): 24.2 μm
- caspase-3 activity (caspase-3; BE(2)-M17, 0.62 mM MPP^+ alone, untreated = 100%): 114%

SMILES: Cc1ccc(/C=C/C(=O)c2c(O)c3ccccc3oc2=O)cc1 [LM-016]
- GCLC level (GCLC): 99–106%
- caspase-3 activity (caspase-3; [4]): 102%
- viability at 10 µM ([1]; retinoic acid-differentiated BE(2)-M17, compound 10 μM 8 h, then 0.62 mM MPP^+ 40 h, MPP^+ alone 81%, untreated = 100%): 95 to 97%
